≈ marks a conversion by molar mass, not a printed value. Where two headings read alike, the source gives them in different places.
Tests used:
[1] = test system: human liver cancer cell strain HepG2; experiment: MTT growth inhibition on HepG2; format: cell-based; conditions: Homo sapiens, read-out: IC50 HepG2;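 further: adherent cells in 96-well plates treated with a concentration series for 24, 48 or 72 h, MTT absorbance read at 490 nm, inhibition computed relative to untreated control wells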
Method: (§2) By using an MTT method, a sample solution to be tested was added to a 96-well plate in which cancer cells were adherently grown. Culturing was performed for a certain period, and the growth inhibition effect of a compound on a human cancer cell strain for primary screening was measured to determine the anti-cancer activity of the compound.
(§3) Cell culture: A cell incubator was set to conditions of 37° C., 5% CO2, and a saturated humidity, cells were cultured under these conditions, and the cell medium was a DMEM complete medium, wherein 10% fetal bovine serum, 100 IU/mL penicillin, and 100 μg/mL streptomycin were comprised.
(§4) The single cell suspension was diluted to 5×10^3/100 μL after counting, inoculated on a 96-well cell culture plate (triplicate), and adherently cultured overnight;
(§5) After 24 h of adhesion, the complete medium was discarded, 100 μL-sample-solutions to be tested having different concentrations were sequentially added to the 96-well plate according to a concentration gradient, and incubations were continued for 24 h, 48 h, and 72 h;
(§6) The culture liquid was discarded, a 0.5 mg/mL MTT diluted working liquid was added, and incubation was performed for 4 h by placing in an incubator;
(§7) The culture liquid was discarded, 100 μL of DMSO was added, low-speed oscillation was performed for 10 min by placing on a shaker, and the spectrophotometric value of each well was measured at a wavelength of 490 nm by using a microplate reader. Statistical analysis was performed and tumor cell growth inhibition rate was calculated according to the equation: Growth inhibition rate=(OD value of control group−OD value of experimental group)/OD value of control group.
(§8) Culturing was performed for a certain period, the growth inhibition effect of a compound on 3 human cancer cell strains for primary screening was measured to determine the anti-cancer activity of the compound, and a growth inhibition curve was plotted.

[2] = In vivo absorption in mice, intragastric versus intraperitoneal administration; design: species or system white Kunming mice; conditions: inferred from no statistical difference between administration manners
Text: The aim of this experiment was to investigate in vivo tumor growth inhibition effect of FICD on white Kunming mice bearing ascites hepatoma H22 induced solid tumor, discuss in vivo absorption of FICD in mice, and investigate the druggability and the selection of administration manners of FICD, among different administration manners (intragastric administration and intraperitoneal injection administration). The specific protocol of investigation was as follows:
(§1) Test method: For the test method, see Example 24. Results can be seen in FIG. 15, FIG. 16, and Table 5.

[3] = test system: ascites hepatoma H22 induced solid tumor; experiment: In vivo tumor growth inhibition in mice bearing H22; design: species or system white Kunming mice; conditions: Table 4, intraperitoneal, 10 d
Text: 1. Tumor strain and animal for experiments: H22 liver cancer cell strain was provided by Teaching and Research Office, School of Basic Medical Sciences, Lanzhou University/Key Lab of Preclinical Study for New Drugs of Gansu Province, and was passage and preserved by periodically intraperitoneal inoculation. White Kunming mice (18.0-22.0 g) were provided by Lanzhou Veterinary Institute, Chinese Academy of Agriculture.
2. Establishment of tumor models and method of grouping: a third passage of mice which were well grown 7 d after intraperitoneal inoculation of H22 tumor cells were sacrificed by cervical dislocation, and placed and soaked in 75% alcohol for 10 min. After 3 mL of sterile physiological saline was intraperitoneally injected, milky tumor cell ascites was withdrawn from the abdominal cavity, and formulated into a tumor cell suspension with sterile physiological saline, with a cell number of 1.5×10^7 mL^−1. 80 white Kunming mice were taken, and 0.2 mL of the tumor cell suspension was subcutaneously inoculated to the left axilla of each mouse. 24 h after the inoculation of tumor cells, the mice were divided into 8 groups according to body weights, 10 mice for each group. […] All of the administration manners were intraperitoneal administration.
3. Result of experiments: On the second day of modeling, continuous administration was performed for 10 d. Administration was stopped on the 11th d, and mice were sacrificed by cervical dislocation on the next day.
as §1
Method: Modeling was performed by using the method of establishing H22 white mice tumor-bearing model of Example 24. The in vivo tumor growth inhibition activity of COM33 on H22 model mice was measured in an intraperitoneal injection administration manner.

liver cancer cells = experiment: MTT growth inhibition on liver cancer cells; format: cell-based; conditions: Homo sapiens
Method: as §2, §3
(§9) The single cell suspension was diluted to 5×10^3/100 μL after counting, inoculated on a 96-well cell culture plate (triplicate), and adherently cultured overnight; […]
as §7

HepG2 cells [4] = experiment: Cell cycle distribution by flow cytometry; format: cell-based, human; conditions: sorafenib 5 μg/mL, FICD 10 μg/mL, combination 5 μg/mL FICD+10 μg/mL sorafenib
Experimental: 1 mL of 70% precooled (−20° C.) ethanol was added to the cell precipitate, homogenized by pipetting, and fixed at 4° C. overnight. On the second day, HepG2 cells was collected by centrifugation, 2 mL of precooled PBS was added for washing 3 times, 500 μL of PBS containing 50 μg/mL […] (PI) and 100 μg/mL RNaseA was added, and incubation was performed at 4° C. under protection from light for 30 min. Detection was performed on a flow cytometer, and results can be seen in FIG. 9 and FIG. 10.

[5] = test system: ascites hepatoma H22 induced solid tumor; experiment: In vivo tumor growth inhibition in mice bearing H22; design: species or system white Kunming mice; conditions: for Tumor inhibition rate (%): Table 5
[6] = test system: human breast cancer cell strain MAD-MB-231; experiment: MTT growth inhibition on MAD-MB-231; format: cell-based; conditions: MDA-MB-231, after 48 h of action
Method: as §2, §3, §9, §7

HepG2 cells [7] = experiment: Apoptosis induction, Annexin V and PI double-staining, flow cytometry; format: cell-based, human; conditions: HepG2, 24 h; sorafenib 4 μg/mL; combination 4 μg/mL sorafenib+5 μg/mL FICD
Experimental: Different concentrations of FICD were added on the second day, culture was continued for 24 h, cells were collected and washed 3 times with precooled PBS, and adherent cells were digested with trypsin free of EDTA. The solutions were combined, centrifuged, and washed 3 times again with precooled PBS. 400 μL of solution containing 5 μL of V-FITC and 10 μL of PI was added, incubation was performed at room temperature under protection from light, and detection was performed by flowcytometry after 30 min.

[8] = test system: human cervical cancer Hela cell strains; experiment: MTT growth inhibition on Hela; conditions: Homo sapiens, HeLa;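 further: compound exposure of 24, 48 or 72 h in DMEM with 10% fetal bovine serum, MTT absorbance read at 490 nm, inhibition calculated relative to control group OD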
Method: as §2, §3, §4, §5, §6, §7, §8

[9] = test system: human liver cancer cell strain SMMC-7721; experiment: MTT growth inhibition on SMMC-7721; format: cell-based; conditions: concentration range of 10-40 μg/mL, one of 6 types of tumor cells
Method: as §2, §3, §9, §7

IC50 ([1]; HepG2, 48 h, after 48 h of action): 10.1 ± 1.2 µg/mL
IC50 ([1]; HepG2, Table 1, MTT): 17.2 µM
IC50 ([1]; HepG2, Table 2, MTT): 17.2 µM
in vivo absorption after oral administration [2]: well absorbed
IC50 (liver cancer cells): 10 to 20 µg/mL (≈ 17.3 to 34.6 µM)
IC50 [6]: 14.2 ± 0.66 µg/mL (≈ 24.6 µM)
IC50 ([8]; 48 h, read-out: IC50 Hela, after 48 h of action): 18.6 ± 0.29 µg/mL
IC50 ([8]; read-out: IC50 HeLa, Table 1, MTT): 26.5 µM
IC50 ([8]; read-out: IC50 Hela, Table 2, MTT): 26.5 µM
SMILES: COc1cc(NC(=O)Nc2ccc(Cl)c(C(F)(F)F)c2)c2c(c1O)-c1c(OC)c(OC)cc3c1C(C2)N(C)CC3 (stereo not shown) [Compound 1]
Tumor inhibition rate (%) ([3]; high FICD dosage 150 mg/Kg): 50.8%
Tumor inhibition rate (%) ([3]; low FICD dosage 50 mg/Kg): 39.1%
Tumor inhibition rate (%) ([3]; middle FICD dosage 100 mg/Kg): 45.6%
cell cycle distribution compared to the blank control group (HepG2 cells [4]): cells significantly increased in the G2/M phase and decreased in the G0/G1 phase
tumor inhibition rates for three administration dosages ([5]; Example 25, 150, 100 and 50 mg/Kg, intragastric or intraperitoneal injection): ≥ 40%
Tumor inhibition rate (%) ([5]; intragastric administration, high dosage 150 mg/Kg): 53.4%
Tumor inhibition rate (%) ([5]; intragastric administration, low dosage 50 mg/Kg): 40.1%
Tumor inhibition rate (%) ([5]; intragastric administration, middle dosage 100 mg/Kg): 48.2%
Tumor inhibition rate (%) ([5]; intraperitoneal injection, high dosage 150 mg/Kg): 53.0%
Tumor inhibition rate (%) ([5]; intraperitoneal injection, low dosage 50 mg/Kg): 40.3%
Tumor inhibition rate (%) ([5]; intraperitoneal injection, middle dosage 100 mg/Kg): 46.3%
apoptosis rate (HepG2 cells [7]): 11.93%
growth inhibition activity [9]: certain growth inhibition activities
